Measured values from ChEMBL document CHEMBL4190267, “Discovery of potent molecular chimera (CM358) to treat human metastatic melanoma” (Eur J Med Chem, 2017).
Calls of active or inactive are those of the source. The calls are words filed in the database; no cut-off is given here.

Columns and labels:
[1] = Half life in pH 7.4 PBS buffer by LC-MS analysis; format: physicochemical
WM 266-4 [2] = experiment: Induction of apoptosis in human WM266.4 cells assessed as late apoptotic cells at 10 uM after 2 hrs by Annexin V-FITC/propidium iodide staining based flow cytometry (reference value: 1.41%); format: functional
WM 266-4 [3] = experiment: Induction of apoptosis in human WM266.4 cells assessed as early apoptotic cells at 10 uM after 2 hrs by Annexin V-FITC/propidium iodide staining based flow cytometry (reference value: 2.64%); format: functional
WM 266-4 [4] = experiment: Antitumor activity against human WM266.4 cells xenografted in athymic Foxn1 nu mouse assessed as tumor growth inhibition at 10 mg/kg, ip administered once daily for 3 days followed by resting period of 4 days repeated for 4 weeks starting from 5 days post tumor inoculation measured on day 19; format: functional, organism-based
WM 266-4 [5] = experiment: Induction of apoptosis in human WM266.4 cells assessed as necrotic cells at 25 uM after 8 hrs by Annexin V-FITC/propidium iodide staining based flow cytometry (reference value: 1.22%); format: functional
WM 266-4 [6] = experiment: Antitumor activity against human WM266.4 cells xenografted in athymic Foxn1 nu mouse assessed as tumor growth inhibition at 5 mg/kg, ip administered once daily for 7 days followed by resting period of 2 days repeated for 4 weeks starting from 5 days post tumor inoculation measured on day 21; format: functional, organism-based
WM 266-4 [7] = experiment: Induction of apoptosis in human WM266.4 cells assessed as early apoptotic cells at 10 uM after 24 hrs by Annexin V-FITC/propidium iodide staining based flow cytometry (reference value: 2.64%); format: functional
WM 266-4 [8] = experiment: Induction of necrosis in human WM266.4 cells at 5 to 25 uM after 16 hrs by Annexin V-FITC/propidium iodide staining based fluorescence microscopic method; format: functional, cell-based
WM 266-4 [9] = experiment: Cell cycle arrest in human WM266.4 cells assessed as accumulation at G2 phase at 10 uM after 24 hrs by propidium iodide staining based flow cytometry (reference value: 11%); format: functional
WM 266-4 [10] = experiment: Cell cycle arrest in human WM266.4 cells assessed as accumulation at G1 phase at 10 uM after 8 hrs by propidium iodide staining based flow cytometry (reference value: 59%); format: functional
WM 266-4 [11] = experiment: Cell cycle arrest in human WM266.4 cells assessed as accumulation at G2 phase at 10 uM after 2 hrs by propidium iodide staining based flow cytometry (reference value: 11%); format: functional
WM 266-4 [12] = experiment: Growth inhibition of human WM266.4 cells at 1 uM incubated up to 96 hrs by XTT assay; format: functional, cell-based
WM 266-4 [13] = experiment: Cell cycle arrest in human WM266.4 cells assessed as accumulation at G2 phase at 10 uM after 8 hrs by propidium iodide staining based flow cytometry (reference value: 11%); format: functional
WM 266-4 [14] = experiment: Induction of apoptosis in human WM266.4 cells assessed as live cells at 10 uM after 24 hrs by Annexin V-FITC/propidium iodide staining based flow cytometry (reference value: 94.7%); format: functional
WM 266-4 [15] = experiment: Cell cycle arrest in human WM266.4 cells assessed as accumulation at S phase at 10 uM after 2 hrs by propidium iodide staining based flow cytometry (reference value: 27%); format: functional
WM 266-4 [16] = experiment: Growth inhibition of human WM266.4 cells at 5 uM incubated up to 72 hrs by XTT assay relative to control; format: functional; settings: WM 266-4, 72 h, read-out: GI
WM 266-4 [17] = experiment: Induction of apoptosis in human WM266.4 cells assessed as necrotic cells at 25 uM after 2 hrs by Annexin V-FITC/propidium iodide staining based flow cytometry (reference value: 1.22%); format: functional
WM 266-4 [18] = experiment: Induction of apoptosis in human WM266.4 cells assessed as late apoptotic cells at 10 uM after 8 hrs by Annexin V-FITC/propidium iodide staining based flow cytometry (reference value: 1.41%); format: functional
WM 266-4 [19] = experiment: Induction of apoptosis in human WM266.4 cells assessed as late apoptotic cells at 25 uM after 2 hrs by Annexin V-FITC/propidium iodide staining based flow cytometry (reference value: 1.41%); format: functional
WM 266-4 [20] = experiment: Induction of apoptosis in human WM266.4 cells assessed as live cells at 25 uM after 2 hrs by Annexin V-FITC/propidium iodide staining based flow cytometry (reference value: 94.7%); format: functional
WM 266-4 [21] = experiment: Induction of apoptosis in human WM266.4 cells assessed as early apoptotic cells at 25 uM after 8 hrs by Annexin V-FITC/propidium iodide staining based flow cytometry (reference value: 2.64%); format: functional
MDA-MB-231 = experiment: Growth inhibition of human MDA-MB-231 cells preincubated for 6 hrs followed compound washout measured after 24 hrs by XTT assay; format: functional
A 172 = experiment: Growth inhibition of human A172 cells preincubated for 6 hrs followed compound washout measured after 24 hrs by XTT assay; format: functional
NCI-H1299 = experiment: Growth inhibition of human NCI-H1299 cells preincubated for 6 hrs followed compound washout measured after 24 hrs by XTT assay; format: functional
WM 266-4 [22] = experiment: Cell cycle arrest in human WM266.4 cells assessed as accumulation at G1 phase at 10 uM after 24 hrs by propidium iodide staining based flow cytometry (reference value: 59%); format: functional
WM 266-4 [23] = experiment: Induction of apoptosis in human WM266.4 cells assessed as necrotic cells at 10 uM after 8 hrs by Annexin V-FITC/propidium iodide staining based flow cytometry (reference value: 1.22%); format: functional

CN(C)CCN1C(=O)c2cccc3cc(NC(=O)CCCc4ccc(N(CCCl)CCCl)cc4)cc(c23)C1=O.O=C(O)C(F)(F)F
half-life [1]: 25 h
Activity (WM 266-4 [2]): 1.46%
Activity (WM 266-4 [3]): 5.05%
TGI (WM 266-4 [4]): Active
Activity (WM 266-4 [5]): 27.9%
TGI (WM 266-4 [6]): inactive
Activity (WM 266-4 [7]): 3.9%
Activity (WM 266-4 [8]): Active
Activity (WM 266-4 [9]): 24%
Activity (WM 266-4 [10]): 35%
Activity (WM 266-4 [11]): 15%
growth inhibition (GI) (WM 266-4 [12]): inactive
Activity (WM 266-4 [13]): 17%
Activity (WM 266-4 [14]): 84.5%
Activity (WM 266-4 [15]): 45%
inhibition of growth at 5 µM (WM 266-4 [16]): 100%
Activity (WM 266-4 [17]): 16.4%
Activity (WM 266-4 [18]): 1.59%
Activity (WM 266-4 [19]): 3.94%
Activity (WM 266-4 [20]): 72.9%
Activity (WM 266-4 [21]): 5.46%
GI50 (MDA-MB-231): 3.1 µM
GI50 (A 172): 7.5 µM
GI50 (NCI-H1299): 6.8 µM
Activity (WM 266-4 [22]): 36%
Activity (WM 266-4 [23]): 9.33%
